Assays:
Assay in all cases: relative viability (nuclei count vs DMSO), 5 days (fraction); higher = more cells survive
[1] = system: BEN
Outline: (§1)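 Lung cancer cell lines were seeded in 1536-well plates and dosed by pin tool the next day, with either a single drug or a fixed anchor-drug dose combined with five library-drug doses (not always all listed) spaced in √10 steps. Five days later, one step fixed the cells and stained their nuclei (final 0.05% Triton X-100, 1% formaldehyde, 1 ug/ml Hoechst), and nuclei were counted on 4× images. Relative viability is the nuclei count in treated wells divided by the count in vehicle wells, and each value is the median of duplicate plates.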

[2] = system: ChaGo-K-1
Outline: as §1

[3] = system: HCC-78
Outline: as §1

[4] = system: LC-2-ad
Outline: as §1

[5] = system: LCLC-97TM1
Outline: as §1

[6] = system: LK-2
Outline: as §1

[7] = system: LU99A
Outline: as §1

[8] = system: LXF-289
Outline: as §1

[9] = system: NCI-H1355
Outline: as §1

[10] = system: NCI-H1651
Outline: as §1

[11] = system: NCI-H1666
Outline: as §1

[12] = system: NCI-H1944
Outline: as §1

[13] = system: NCI-H1975
Outline: as §1

[14] = system: NCI-H2087
Outline: as §1

[15] = system: NCI-H2342
Outline: as §1

[16] = system: NCI-H358
Outline: as §1

[17] = system: NCI-H596
Outline: as §1

[18] = system: NCI-H650
Outline: as §1

[19] = system: NCI-H661
Outline: as §1

[20] = system: NCI-H838
Outline: as §1

[21] = system: PC-3 [JPC-3]
Outline: as §1

[22] = system: SK-MES-1
Outline: as §1

`O=c1cc(-c2cccc3c2Sc2ccccc2S3)oc(N2CCOCC2)c1` + Nc1ncn([C@H]2C[C@H](O)[C@@H](CO)O2)c(=O)n1 [Decitabine] (partner 2 µM) gave a relative viability ([1]; first compound 0.08 µM) of 0.649, a relative viability ([1]; first compound 0.253 µM) of 0.699 and a relative viability ([1]; first compound 0.8 µM) of 0.69. It also gave a relative viability ([1]; first compound 2.53 µM) of 0.586, a relative viability ([1]; first compound 8 µM) of 0.943 and a relative viability ([2]; first compound 0.08 µM) of 0.542. The relative viability ([2]; first compound 0.253 µM) was 0.555, the relative viability ([2]; first compound 0.8 µM) was 0.541 and the relative viability ([2]; first compound 2.53 µM) was 0.51. The relative viability ([2]; first compound 8 µM) was 0.555, the relative viability ([3]; first compound 0.08 µM) was 0.653 and the relative viability ([3]; first compound 0.253 µM) was 0.906. It also gave a relative viability ([3]; first compound 0.8 µM) of 0.647, a relative viability ([3]; first compound 2.53 µM) of 0.664 and a relative viability ([3]; first compound 8 µM) of 0.74. It also gave a relative viability ([4]; first compound 0.08 µM) of 0.786, a relative viability ([4]; first compound 0.253 µM) of 0.928 and a relative viability ([4]; first compound 0.8 µM) of 0.905. It also gave a relative viability ([4]; first compound 2.53 µM) of 0.761, a relative viability ([4]; first compound 8 µM) of 0.793 and a relative viability ([5]; first compound 0.08 µM) of 0.195. For the same molecule, the relative viability ([5]; first compound 0.253 µM) was 0.217, the relative viability ([5]; first compound 0.8 µM) was 0.256 and the relative viability ([5]; first compound 2.53 µM) was 0.186. The relative viability ([5]; first compound 8 µM) was 0.242, the relative viability ([6]; first compound 0.08 µM) was 0.245 and the relative viability ([6]; first compound 0.253 µM) was 0.341. The relative viability ([6]; first compound 0.8 µM) was 0.244, the relative viability ([6]; first compound 2.53 µM) was 0.255 and the relative viability ([6]; first compound 8 µM) was 0.335. The relative viability ([7]; first compound 0.08 µM) was 0.897, the relative viability ([7]; first compound 0.253 µM) was 0.996 and the relative viability ([7]; first compound 0.8 µM) was 1.04. For the same molecule, the relative viability ([7]; first compound 2.53 µM) was 0.866, the relative viability ([7]; first compound 8 µM) was 1.18 and the relative viability ([8]; first compound 0.08 µM) was 0.389. It also gave a relative viability ([8]; first compound 0.253 µM) of 0.465, a relative viability ([8]; first compound 0.8 µM) of 0.42 and a relative viability ([8]; first compound 2.53 µM) of 0.439. For the same molecule, the relative viability ([8]; first compound 8 µM) was 0.416, the relative viability ([9]; first compound 0.08 µM) was 0.374 and the relative viability ([9]; first compound 0.253 µM) was 0.382. The relative viability ([9]; first compound 0.8 µM) was 0.342, the relative viability ([9]; first compound 2.53 µM) was 0.373 and the relative viability ([9]; first compound 8 µM) was 0.331. The relative viability ([10]; first compound 0.08 µM) was 0.575, the relative viability ([10]; first compound 0.253 µM) was 0.766 and the relative viability ([10]; first compound 0.8 µM) was 0.617. It also gave a relative viability ([10]; first compound 2.53 µM) of 0.555, a relative viability ([10]; first compound 8 µM) of 0.628 and a relative viability ([11]; first compound 0.08 µM) of 0.664. The relative viability ([11]; first compound 0.253 µM) was 0.799, the relative viability ([11]; first compound 0.8 µM) was 0.706 and the relative viability ([11]; first compound 2.53 µM) was 0.678. The relative viability ([11]; first compound 8 µM) was 0.762, the relative viability ([12]; first compound 0.08 µM) was 0.406 and the relative viability ([12]; first compound 0.253 µM) was 0.448. For the same molecule, the relative viability ([12]; first compound 0.8 µM) was 0.457, the relative viability ([12]; first compound 2.53 µM) was 0.432 and the relative viability ([12]; first compound 8 µM) was 0.468. For the same molecule, the relative viability ([13]; first compound 0.08 µM) was 0.366, the relative viability ([13]; first compound 0.253 µM) was 0.36 and the relative viability ([13]; first compound 0.8 µM) was 0.348. For the same molecule, the relative viability ([13]; first compound 2.53 µM) was 0.38, the relative viability ([13]; first compound 8 µM) was 0.381 and the relative viability ([14]; first compound 0.08 µM) was 0.231. The relative viability ([14]; first compound 0.253 µM) was 0.257, the relative viability ([14]; first compound 0.8 µM) was 0.266 and the relative viability ([14]; first compound 2.53 µM) was 0.242. It also gave a relative viability ([14]; first compound 8 µM) of 0.238, a relative viability ([15]; first compound 0.08 µM) of 0.662 and a relative viability ([15]; first compound 0.253 µM) of 0.794. The relative viability ([15]; first compound 0.8 µM) was 0.734, the relative viability ([15]; first compound 2.53 µM) was 0.721 and the relative viability ([15]; first compound 8 µM) was 0.77. The relative viability ([16]; first compound 0.08 µM) was 0.199, the relative viability ([16]; first compound 0.253 µM) was 0.205 and the relative viability ([16]; first compound 0.8 µM) was 0.2. It also gave a relative viability ([16]; first compound 2.53 µM) of 0.25, a relative viability ([16]; first compound 8 µM) of 0.214 and a relative viability ([17]; first compound 0.08 µM) of 0.833. It also gave a relative viability ([17]; first compound 0.253 µM) of 0.951, a relative viability ([17]; first compound 0.8 µM) of 0.989 and a relative viability ([17]; first compound 2.53 µM) of 0.997. It also gave a relative viability ([17]; first compound 8 µM) of 0.996, a relative viability ([18]; first compound 0.08 µM) of 0.317 and a relative viability ([18]; first compound 0.253 µM) of 0.352. It also gave a relative viability ([18]; first compound 0.8 µM) of 0.513, a relative viability ([18]; first compound 2.53 µM) of 0.322 and a relative viability ([18]; first compound 8 µM) of 0.29. The relative viability ([19]; first compound 0.08 µM) was 0.536, the relative viability ([19]; first compound 0.253 µM) was 0.572 and the relative viability ([19]; first compound 0.8 µM) was 0.518. The relative viability ([19]; first compound 2.53 µM) was 0.551, the relative viability ([19]; first compound 8 µM) was 0.558 and the relative viability ([20]; first compound 0.08 µM) was 0.471. For the same molecule, the relative viability ([20]; first compound 0.253 µM) was 0.519, the relative viability ([20]; first compound 0.8 µM) was 0.457 and the relative viability ([20]; first compound 2.53 µM) was 0.452. For the same molecule, the relative viability ([20]; first compound 8 µM) was 0.497, the relative viability ([21]; first compound 0.08 µM) was 0.733 and the relative viability ([21]; first compound 0.253 µM) was 0.791. The relative viability ([21]; first compound 0.8 µM) was 0.838, the relative viability ([21]; first compound 2.53 µM) was 0.79 and the relative viability ([21]; first compound 8 µM) was 0.884. The relative viability ([22]; first compound 0.08 µM) was 0.337, the relative viability ([22]; first compound 0.253 µM) was 0.406 and the relative viability ([22]; first compound 0.8 µM) was 0.352. The relative viability ([22]; first compound 2.53 µM) was 0.458 and the relative viability ([22]; first compound 8 µM) was 0.375.
